Source: patent publication EP4541351A1, “COMPOUNDS AND COMBINATION AS STIMULATORS OF COLLAGEN SYNTHESIS” (Center for Intelligent Research in Crystal Engineering, S.L., priority 2023, dated 2025)

Key:
[1] = test system: Immortalized Human Gingival Fibroblasts-hTERT (iHGF); assay: Total collagen deposition (Sirius red staining) after UVA irradiation; type: cell-based; details: 7 days after irradiation and treatment
Protocol: Collagen deposition was determined according to Walsh et al 1992. […] Collagen was stained with Sirius red F3BA 0.1% in saturated picric acid for 1 hour. Unbound dye was removed by washing with 10 mM HCl, and dye was solubilized with 100 mM NaOH. Absorbance was measured with a microplate reader at 540 nm. Non-treated cells were set as 100%.

[2] = test system: Immortalized Human Gingival Fibroblasts-hTERT (iHGF); assay: Metabolic activity (PrestoBlue cell viability) after UVA irradiation; details: 24 h after irradiation and after 7 days of culture and treatment
Protocol: Immortalized Human Gingival Fibroblasts-hTERT (iHGF) (Applied Biological Materials Inc) were used for the experiments. Cells were grown at 37 °C in an atmosphere of 5% CO2 using complete fibroblast cell culture medium that consists in Dulbecco's modified Eagle's medium (DMEM) low glucose (Biowest)/Ham's F12 (3/1) (Biowest), supplemented with 10% (v/v) fetal bovine serum embryonic stem cells tested (FBS) (Biowest), 100 g/mL penicillin and 100 g/mL streptomycin (Biowest).
iHGF were seeded (7 000 cells/well) in 96-well plates (white and transparent tissue culture test-plates) and at confluence, cells were treated with different concentrations (0.1; 1; 10; 50; 75 and 100 µM) of Pteroyouth®, pterostilbene or silybin in complete fibroblast cell culture medium as described above. […] To measure cell viability, cell culture media and treatments were added again to the cells and metabolic activity was measured 24 h after irradiation. […] Cell viability was determined again at day 7, and cell monolayer was used to quantify collagen deposition. […]
Total metabolic activity was evaluated using the PrestoBlue™ Cell Viability Reagent (Invitrogen, Catalog Number A13261; Life Technologies, Carlsbad, CA, USA), which is used to measure the metabolic activity of cells, being an indicator of their overall health and functionality. […]

| SMILES | total collagen deposition compared to both C and CuVA ([1]; 1 µM) | metabolic activity (cell viability) ([2]; 0.1 µM) | metabolic activity (cell viability) ([2]; 1 µM) | total collagen deposition compared to both C and CuVA ([1]; 0.1 µM) | total collagen deposition compared to both C and CuVA ([1]; 10 µM) |
| --- | --- | --- | --- | --- | --- |
| COc1cc(/C=C/c2ccc(O)cc2)cc(OC)c1 [pterostilbene, trans-3,5-dimethoxy-4-hydroxystilbene] | higher collagen deposition | maintain cell viability | maintain cell viability | – | – |
| COc1cc(C2Oc3cc([C@H]4Oc5cc(O)cc(O)c5C(=O)[C@@H]4O)ccc3OC2CO)ccc1O (stereo partly drawn) [silybin] | higher collagen deposition | – | – | higher collagen deposition | higher collagen deposition |
